Two molecules from PMC5492227 (European journal of medicinal chemistry, 2017) can be followed below.

The assay addresses T1, EPAC1 (Homo sapiens, UniProt O95398).
T1 sequence (O95398 1-923): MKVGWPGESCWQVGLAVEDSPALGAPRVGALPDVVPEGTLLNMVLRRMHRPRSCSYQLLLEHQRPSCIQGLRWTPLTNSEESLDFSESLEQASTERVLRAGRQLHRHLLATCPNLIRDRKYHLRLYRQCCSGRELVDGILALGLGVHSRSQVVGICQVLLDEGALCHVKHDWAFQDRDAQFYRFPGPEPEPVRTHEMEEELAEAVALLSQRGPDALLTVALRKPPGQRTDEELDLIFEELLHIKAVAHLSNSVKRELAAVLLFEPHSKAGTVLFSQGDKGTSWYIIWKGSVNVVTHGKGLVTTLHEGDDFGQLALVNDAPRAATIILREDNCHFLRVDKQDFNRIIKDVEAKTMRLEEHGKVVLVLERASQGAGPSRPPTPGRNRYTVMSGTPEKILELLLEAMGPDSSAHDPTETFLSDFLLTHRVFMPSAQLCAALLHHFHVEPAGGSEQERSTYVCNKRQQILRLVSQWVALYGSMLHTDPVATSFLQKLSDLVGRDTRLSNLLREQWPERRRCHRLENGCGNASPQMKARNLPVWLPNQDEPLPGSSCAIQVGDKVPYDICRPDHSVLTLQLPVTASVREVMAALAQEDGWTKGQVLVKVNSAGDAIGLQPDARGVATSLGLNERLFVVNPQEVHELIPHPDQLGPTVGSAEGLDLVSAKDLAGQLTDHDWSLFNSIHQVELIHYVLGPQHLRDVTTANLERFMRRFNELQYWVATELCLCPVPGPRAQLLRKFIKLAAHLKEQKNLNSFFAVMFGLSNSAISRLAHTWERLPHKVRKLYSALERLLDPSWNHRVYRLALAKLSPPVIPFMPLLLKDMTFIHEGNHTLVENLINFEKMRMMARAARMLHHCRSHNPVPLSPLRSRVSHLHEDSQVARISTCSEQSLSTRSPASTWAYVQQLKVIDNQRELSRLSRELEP
Description: biochemical. It counts as biochemical.

Molecules are shown by their SMILES.

As for `N#C/C(=N\Nc1ccc(Cl)c(C(F)(F)F)c1)C(=O)c1cc(-c2ccccc2)on1` [Compound 14, N-(3-Trifluromethyl-4-chlorophenyl)-2-oxo-2-(5-phenylisoxazol-3-yl)acetohydrazonoyl cyanide], the “fold increase in potency compared to that of 1 (EPAC1)” value was “about 5 fold”.

For `N#C/C(=N\Nc1cccc(Cl)c1)C(=O)c1cc(-c2ccco2)on1` [Compound 25, N-(3-Chlorophenyl)-2-(5-(furan-2-yl)isoxazol-3-yl)-2-oxoacetohydrazonoyl cyanide], under “Rap1b-bGDP EPAC1 IC50, purified recombinant full-length EPAC1, 20 μM cAMP, mean ± SD of at least three independent experiments”, the IC50 (commonly the concentration at which inhibition is half-maximal) is 3.6 µM.
